The source of these data is a melting point compilation (Tetko et al.; mined from patent text by program, amines drawn as free bases though some values may be those of a salt).

Structures are written as SMILES. Where only a bound is given, the exact number is not on record here.

`COc1ccc2c(c1)OCC(c1ccc(C(F)(F)F)cc1)C2c1ccc(O)cc1` (stereo unspecified) registered a melting point of 211 to 213 °C.

`O=c1c2ccc(OCCCN3CCN(Cc4ccc(Cl)cc4)CC3)cc2oc2nn[nH]c12`: the melting point is 215 to 216 °C. With `CCN(CC)CCn1nc2c3c(c(CNS(C)(=O)=O)ccc31)Sc1ccccc1-2` the figure was 120 to 125 °C. On to `CC(=O)NC(Cc1c[nH]c2ccccc12)C(=O)OCc1cc(C)cc(C)c1` (stereo unspecified), for which the melting point was 145 to 146 °C. With `COc1ccc(OCc2ccccn2)cc1/C=C/c1cc(/C=C/c2ccc3[nH]ccc3c2)n[nH]1` the figure was 116 to 122 °C; with `O=C1NC(=S)CCC1N1C(=O)c2ccccc2C1=O` (stereo unspecified), 225 to 226 °C; with `COc1cc(C(=O)c2ccc(C)cc2)cc(C(=O)O)c1OC`, 135 to 136 °C. With `CC(=O)c1cc(F)c(O)c(F)c1` the figure was 141 to 143 °C; with `O=C(NC[C@H]1CC[C@@H](Oc2ccc(F)cc2)CC1)c1ccc(O)cc1`, 170 °C. `CN(CCOc1ccccc1)[C@H]1CC[C@H](c2ccc(O)cc2)CC1` showed a melting point of 90 to 92 °C. Turning to `CC(=O)OC1CCC2(C)C(CCC3C2CCC2(C)C(C(C)=O)CCC32)C1` (stereo unspecified), the melting point is 141 to 142 °C. Compound `COC(CN(C)C(=O)Nc1nnc(C(C)Oc2ccccc2)s1)OC` (stereo unspecified) returned a melting point of 117 to 121 °C.

In the case of `NS(=O)(=O)c1ccc(-c2cccc(-c3nc(-c4ccc(C(F)(F)F)cc4)cc(C(F)F)n3)c2)s1`, the melting point was found to be 240 °C.

On to `O=C(Nc1ccccc1O)c1ccc(CS(=O)(=O)c2ccc(O)cc2)cc1`, for which the melting point was 250 °C. In the case of `O=C(CNC(=O)c1cccc(Cl)c1)c1ccsc1` it was 137 to 140 °C; in that of `Cc1c(N2CCC(C)(NC(=O)OC(C)(C)C)C2)c(F)c(N)c2c(=O)c(C(=O)O)cn(C3CC3)c12` (stereo unspecified), 214 °C; in that of `C[C@@H]1CNC[C@H](C)N1c1ncccn1`, 130 to 135 °C. In the case of `CC(C)(C)OC(=O)NC(Cc1ccc(OCc2ccccc2)cc1)C(=O)NCC(=O)OCc1ccccc1` (stereo unspecified) it was 101 to 104 °C; in that of `O=[N+]([O-])c1oc2ccc(-c3ccc(CCO)cc3)cc2c1-c1ccccc1`, 86 to 87 °C; in that of `COC(=O)Cc1ccc(O)c(F)c1`, 32 to 34 °C.

Turning to `O=C(c1ccc(Cl)cc1)c1ccc(N2N=CCNC2=O)cc1Cl`, the melting point was 158 to 159 °C. Turning to `Nc1nc2ccccc2c2c1nc(COc1ccccc1)n2CCOc1ccccc1`, the melting point lay in the range of 168 to 170 °C. Compound `COc1ccc2[nH]cc(CCCCN3CCN(c4ccc5oc(CO)cc5c4)CC3)c2c1` displayed a melting point of 159 °C. In the case of `Nc1cc(-c2noc(-c3cnn4c(C(F)(F)F)cc(-c5ccc(C(F)(F)F)cc5)nc34)n2)ccn1` it was 277 °C. For the compound `O=C1c2cc(Cl)ccc2COc2ccccc21`, the melting point lay in the range of 82 to 83 °C. As for `COc1ccc(-c2nc(SCC(F)(F)F)[nH]c2-c2ccc(OC)cc2)cc1`, the melting point was 119 to 120 °C.

Regarding `CCP(=O)(CC)Cc1ccc(NC(=O)/C=C/c2cccc(-c3ccc(C)cc3)c2)cc1`, the melting point was in the range of 197 to 198 °C. In the case of `Cc1ccc([N+](=O)[O-])c(=O)[nH]1`, the melting point was 222 to 223 °C.

For `CC(C)CNC1NC(=O)N(c2cccs2)C(=O)N1`, the melting point was 265 to 268 °C. With `O=[N+]([O-])c1ccc(C23CCN(CC2)CC3)cc1` the figure was 130 to 135 °C; with `COC(=O)c1cc(F)c(N2CCC(N)C2)nc1Nc1ccc(F)cc1F` (stereo unspecified), 139 to 140 °C. In turn, `Cc1nc(O)c(C(=O)O)cc1Cl` showed a melting point of 291 to 294 °C. In the case of `CCCc1nc(Sc2ccc(O)cc2)c(C=O)n1Cc1cc2c(cc1Cl)OCO2` it was 242 °C. In the case of `O=C1c2cc(OCc3ccccc3Cl)ccc2CCN1Cc1cccnc1`, the melting point was 88.5 to 90 °C. In turn, `O=C1Nc2ccc(F)cc2C(C#Cc2ccccc2)(C(F)(F)F)N1` (racemic) showed a melting point of 107 °C. On to `CCN(CC)CC=CC(=O)Nc1cc2c(Nc3ccc(F)c(Cl)c3)ncnc2cc1OC1CCCC1`, for which the melting point came to 105 °C. Take `C=CCN(CC=C)Cc1noc(-c2ncn3c2CN(C)C(=O)c2ccccc2-3)n1`: the melting point lay within 203 to 205 °C. In the case of `COc1ccc(-n2cc(/C=C(\C#N)C(=O)NS(=O)(=O)c3ccccc3)c(-c3ccc(Cl)c(F)c3)n2)cc1Cl` it was 263 to 264 °C.

Regarding `COc1cc(OC)nc(NC(=O)NS(=O)(=O)Oc2ccccc2-c2nnco2)n1`, the melting point lay in the range of 161 to 164 °C. As for `O=C(O)c1cc(-n2c(-c3ccccc3)cc3c2CCCC3)ccc1O`, the melting point fell in the range of 209 to 211 °C. For the compound `CC(C)NC(=O)NCCn1c(CO)nc2c(N)nc3ccccc3c21`, the melting point was greater than 240 °C. With `CC(C)(C)c1cc(CN=[N+]=[N-])nn1-c1ccc(S(C)(=O)=O)cc1` the figure was 115 to 117 °C.

Regarding `COC(=O)CCC(=O)c1ccc2c(c1)CC(CCCCNC(C)=O)C2` (stereo unspecified), the melting point was in the range of 94 to 95 °C. In the case of `CC(=O)SCC(Cc1ccccc1)C(=O)Nc1ccc(C(=O)O)cc1` (stereo unspecified) it was 187 to 189 °C. With `Cc1cc(NC(=O)N(C)c2ccccc2)cc(C)c1S(=O)(=O)C[N+](=O)[O-]` the figure was 117 to 118 °C. With `Cc1ccc(-c2nccc3c(CCl)cccc23)cc1` the figure was 120 °C. In turn, `O=C(Nc1ccc(NCc2ccccc2)cc1)C(=O)N1CCC(Cc2ccc(F)cc2)CC1` displayed a melting point of 145 to 148 °C. With `O=C(c1ccc(Cl)cc1)c1c(N2C(=O)c3ccccc3C2=O)sc(-c2ccccc2)c1CBr` the figure was 160 to 161 °C. With `C=CCNC(=NCCSCc1[nH]cnc1C)NC#N` the figure was 113 to 114 °C; with `CC(C)(C)OC(=O)C(=[N+]=[N-])C(=O)C(C(=O)OC(C)(C)C)[C@H]1NC(=O)[C@@H]1Br` (stereo partly specified), 136 to 138 °C; with `CCCCCc1c(C(C)C)nc(C(C)C)c(CO)c1-c1ccc(C)cc1`, 92 to 94 °C. On to `Cn1cnc(S(=O)(=O)NC(CN2CCOCC2)CN2CCOCC2)c1`, for which the melting point fell in the range of 191 to 192 °C. The compound `CCOC(=O)N1CCOC(CNC(=O)c2cc(Cl)c(N)cc2OC)C1` (stereo unspecified) showed a melting point of 140 to 151 °C. In the case of `CC(c1cc2ccccc2s1)N(OCc1ccccc1)C(N)=O` (stereo unspecified) it was 126 °C; in that of `CCOC(=O)C1=C(CCN2C(=O)c3ccccc3C2=O)NC(CCN2C(=O)c3ccccc3C2=O)=C(C(=O)OCC)C1c1ccccc1Cl`, 170 °C; in that of `CS(=O)(=O)Nc1cc([C@@H](O)CNC2CCN(c3ccc(S(=O)(=O)NCC(=O)O)cc3)CC2)ccc1O`, 170 to 172 °C. With `OC(COc1ccn(-c2ccc(Cl)c(Cl)c2)n1)CN1CCOCC1` (stereo unspecified) the figure was 158 to 161 °C; with `Cc1cc(C)c2cccc(Cl)c2n1`, 66 to 68 °C; with `Cc1sc(-c2ccccc2)nc1COc1ccc(CO)cn1`, 70 to 71 °C. Take `O=C(c1ccc(Cl)cc1)[C@H]1C[C@H]1C(=O)N1CCC(N2Cc3ccccc3NC2=O)CC1` (relative stereo): the melting point was in the range of 272 to 273 °C.

Regarding `COCOc1cc(C(=O)O)n(Cc2ccc(C(F)(F)F)cc2Cl)n1`, the melting point lay in the range of 133 to 134 °C. `O=C1c2ccccc2C(=O)c2cc(OCC3CO3)ccc21` (stereo unspecified) yielded a melting point of 162 to 167 °C. `COc1nc2c(O)cccc2n1C` showed a melting point of 226 to 229 °C. In the case of `COc1cc2nc(SCc3nccc(N(C)C)c3F)[nH]c2cc1OC` it was 142 to 144 °C; in that of `COC(=O)C(=O)C1=C(O)c2ccsc2SC1`, 53 to 56 °C; in that of `CC(C)NCC(O)COc1cc(-c2ccccc2)nc2ccccc12` (racemic), 109 to 111 °C.

`CO[C@]1(c2cc(F)cc(S(=O)(=O)c3ccc(/C(C)=N/O)cc3)c2)CCO[C@@H](C)C1`: the melting point was 149 °C. In the case of `CN(C1CCSCC1)S(=O)(=O)c1ccc(Nc2nccc(Nc3ccc(F)cc3)n2)cc1`, the melting point came out at 182 °C.

Consider `COC(=O)c1ccccc1-c1ccc(C(=C2CC(C)(C)CC(C)(C)C2)c2ccc(O)cc2)cc1`, for which the melting point lay in the range of 177 to 178 °C. Take `O=C(O)c1ccc(CNC(=O)C2Cc3ccccc3N2S(=O)(=O)c2ccc(-c3ccc(F)cc3OC(F)F)cc2)cc1` (stereo unspecified): the melting point lay within 92 to 97 °C. In the case of `COc1c(F)ccc2c1C(=O)N1CC[C@H]1c1c(-c3noc(CN)n3)ncn1-2` it was 196 to 198 °C. In turn, `CC(C)(C)OC(=O)NNCc1ccc(Cl)cc1` displayed a melting point of 77 to 82 °C. With `Cn1ncc(C(=O)O)c1Cl` the figure was 195 to 197 °C; with `Cc1cc(CCCCOCCCCCCNCc2c(CO)ccc(O)c2CO)cc(C)c1N`, 66 to 68 °C; with `CCc1ccc(NC(=O)Nc2cc(C(C)(C)C)sc2C(=O)NC)cc1`, 101 to 104 °C.

Turning to `C=CC(=O)OCCCNC(=O)CCc1cc(-n2nc3ccccc3n2)c(O)c(C(C)(C)C)c1`, the melting point lay in the range of 87 to 89 °C. With `CCOC(=O)C1=C(C)NC(N)(c2nc(-c3cccc(C(F)(F)F)c3)cs2)N=C1` (stereo unspecified) the figure was 227 to 229 °C; with `COc1ccc(-c2nc3ccccc3nc2-c2ccc(OC)cc2)cc1`, 148 °C; with `O=[N+]([O-])c1ccc(N2CCSCC2)cc1`, 142 to 144 °C.

As for `Oc1ccccc1Cc1ccc2ccccc2c1O`, the melting point fell in the range of 124 to 125 °C. `Cn1cc2c(=O)c(C(=O)c3ccccc3)cn(C)c2n1` had a melting point of 272 to 274 °C. In the case of `CC(c1oc2ccccc2c(=O)c1-c1cccc(F)c1)n1nc(-c2ccc(O)cc2)c2c(N)ncnc21` (stereo unspecified) it was 244 to 247 °C; in that of `O=C(NC(=O)c1ccc2ncccc2c1)NC1CCN(Cc2ccc3ncccc3c2)CC1`, 202 to 204 °C. With `CC(C)Oc1ccc(-n2c(C(=O)O)c(C(=O)O)c3cc(Oc4cccc(Cl)c4)ccc32)cc1` the figure was 182 to 190 °C. With `COC(=O)C=C1CN=C(c2ccccc2F)c2cc(Cl)ccc2N1` the figure was 158 to 160 °C; with `CC(C)(C)c1cc(C=Cc2cc(C=Cc3cc(C(C)(C)C)cc(C(C)(C)C)c3)cc(C=C(Br)Br)c2)cc(C(C)(C)C)c1`, 148 to 150 °C.

The melting point is the temperature, or range, at which the solid turns liquid.
